# Laboratory results as given in PubChem BioAssay (NCI).
# Values joined by “and” are separate entries in the source; they are usually repeats but may differ in a detail not shown here. Equal entries are not always repeated.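 Cultured in 96-well plates, cells were exposed to test compound for 48 hours across five concentrations. Abbreviation: GI50, concentration required for 50% inhibition of growth. At the TGI there is no net growth.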 Where a SMILES comes first, the peptide text is derived from it. [ ]: non-standard residue; d: D form. The star is where a group is joined. ξ: configuration not given here. ξF = NC(Cc1ccccc1)C(=O)O; Cbz = O=C(OCc1ccccc1)*; Aib = CC(C)(N)C(=O)O
# Key:
# Experiment in all cases: growth of human tumour cells (NCI), 48 h
# BT-549 breast = test system: BT-549 breast
# M14 melanoma = test system: M14 melanoma
# A549 NSCLC = test system: A549 NSCLC
# K-562 leukemia = test system: K-562 leukemia
# EKVX NSCLC = test system: EKVX NSCLC
# NCI-H522 lung = test system: NCI-H522 lung
# IGROV1 ovarian = test system: IGROV1 ovarian
# TK-10 renal = test system: TK-10 renal
# HOP-92 NSCLC = test system: HOP-92 NSCLC
# OVCAR-5 ovarian = test system: OVCAR-5 ovarian
smiles,measurement,setting,value
O=C(NCCC1CN(C(=O)OCc2ccccc2)c2ccccc21)OCc1ccccc1 (stereo not drawn),TGI,BT-549 breast,> 100 µM
same,TGI,M14 melanoma,> 100 µM
same,TGI,A549 NSCLC,> 100 µM
same,TGI,K-562 leukemia,> 100 µM
same,TGI,EKVX NSCLC,> 100 µM
same,TGI,NCI-H522 lung,> 100 µM
same,TGI,IGROV1 ovarian,> 100 µM
same,TGI,TK-10 renal,> 100 µM
same,TGI,HOP-92 NSCLC,> 100 µM
same,TGI,OVCAR-5 ovarian,> 100 µM
COc1cc(/C=N/c2nc3cc4sc(/N=C/c5cc(OC)c(OC)c(OC)c5)nc4cc3s2)cc(OC)c1OC,TGI,BT-549 breast,> 100 µM
same,TGI,M14 melanoma,> 100 µM
same,TGI,A549 NSCLC,> 100 µM
same,TGI,K-562 leukemia,> 100 µM
same,TGI,EKVX NSCLC,> 100 µM
same,TGI,NCI-H522 lung,> 100 µM
same,TGI,IGROV1 ovarian,> 100 µM
same,TGI,TK-10 renal,> 100 µM
same,TGI,HOP-92 NSCLC,> 100 µM
same,TGI,OVCAR-5 ovarian,> 100 µM
CC1C(=O)CC(c2cccs2)N(N=O)C1c1cccs1 (stereo not drawn),TGI,A549 NSCLC,> 100 µM
same,TGI,K-562 leukemia,27.6 µM
same,TGI,EKVX NSCLC,> 100 µM
same,TGI,NCI-H522 lung,> 100 µM
same,TGI,IGROV1 ovarian,> 100 µM
same,TGI,HOP-92 NSCLC,83.3 µM
same,TGI,OVCAR-5 ovarian,> 100 µM
CCCCCCCCCCCCCC1=C(O)C(=O)C(CC2=C(O)C(=O)C(CCCCCCCCCCCCC)=C(O)C2=O)=C(O)C1=O,TGI,BT-549 breast,> 100 µM
same,TGI,M14 melanoma,> 100 µM
same,TGI,A549 NSCLC,> 100 µM
same,TGI,K-562 leukemia,> 100 µM
same,TGI,EKVX NSCLC,> 100 µM
same,TGI,NCI-H522 lung,> 100 µM
same,TGI,IGROV1 ovarian,> 100 µM
same,TGI,TK-10 renal,> 100 µM
same,TGI,HOP-92 NSCLC,> 100 µM
same,TGI,OVCAR-5 ovarian,> 100 µM
CCCCN1C(=O)c2c(Br)sc(Br)c2C1=O,TGI,BT-549 breast,> 100 µM
same,TGI,M14 melanoma,> 100 µM
same,TGI,A549 NSCLC,70.3 µM
same,TGI,K-562 leukemia,> 100 µM
same,TGI,EKVX NSCLC,> 100 µM
same,TGI,NCI-H522 lung,> 100 µM
same,TGI,IGROV1 ovarian,> 100 µM
same,TGI,TK-10 renal,> 100 µM
same,TGI,OVCAR-5 ovarian,> 100 µM
COc1ccc(-c2nc3c(nc2-c2ccc(OC)cc2)C(N)=NS(=O)(=O)N3)cc1,TGI,A549 NSCLC,> 100 µM
same,TGI,K-562 leukemia,> 100 µM
same,TGI,EKVX NSCLC,> 100 µM
same,TGI,NCI-H522 lung,> 100 µM
same,TGI,IGROV1 ovarian,> 100 µM
same,TGI,TK-10 renal,> 100 µM
same,TGI,OVCAR-5 ovarian,> 100 µM
Cc1[nH]c(=O)[nH]c(=O)c1/C=C/C(=O)NC(CO)CS(=O)CS(C)=O (stereo not drawn),TGI,A549 NSCLC,332 µM
same,TGI,K-562 leukemia,135 µM
same,TGI,EKVX NSCLC,66.4 µM
same,TGI,NCI-H522 lung,32.3 µM
same,TGI,IGROV1 ovarian,103 µM
same,TGI,HOP-92 NSCLC,44 µM
same,TGI,OVCAR-5 ovarian,483 µM
CCN(CC)CC[n+]1ccc2c(C)c3[nH]c4ccc(O)cc4c3c(C)c2c1,TGI,BT-549 breast,34.3 µM
same,TGI,M14 melanoma,34.9 µM
same,GI50,A549 NSCLC,1.5 µM
same,TGI,A549 NSCLC,30.6 µM and 43.6 µM
same,TGI,K-562 leukemia,42.5 µM and 40.2 µM
same,GI50,EKVX NSCLC,2.03 µM
same,TGI,EKVX NSCLC,38.8 µM and 14.8 µM
same,GI50,NCI-H522 lung,1.56 µM
same,TGI,NCI-H522 lung,10.7 µM and 8.66 µM
same,GI50,IGROV1 ovarian,4.79 µM
same,TGI,IGROV1 ovarian,38.6 µM and 73 µM
same,GI50,HOP-92 NSCLC,2.33 µM
same,TGI,HOP-92 NSCLC,32.6 µM and 12.4 µM
same,TGI,OVCAR-5 ovarian,72.6 µM and 73.8 µM
CCOC(=O)CNC(=O)C(Cc1ccccc1)NC(=O)C(C)(C)NC(=O)OCc1ccccc1 (stereo not drawn) (Cbz-[Aib]-[ξF]-Gly-OEt),TGI,M14 melanoma,> 100 µM
same,TGI,A549 NSCLC,> 100 µM
same,TGI,K-562 leukemia,> 100 µM
same,TGI,EKVX NSCLC,> 100 µM
same,TGI,NCI-H522 lung,> 100 µM
same,TGI,IGROV1 ovarian,> 100 µM
same,TGI,TK-10 renal,> 100 µM
same,TGI,HOP-92 NSCLC,> 100 µM
same,TGI,OVCAR-5 ovarian,> 100 µM
CCOC(=O)Cn1c2ccc(Br)cc2c2nc3ccccc3nc21,TGI,M14 melanoma,> 100 µM
same,TGI,A549 NSCLC,> 100 µM
same,TGI,K-562 leukemia,> 100 µM
same,TGI,IGROV1 ovarian,> 100 µM
same,TGI,TK-10 renal,> 100 µM
same,TGI,HOP-92 NSCLC,> 100 µM
same,TGI,OVCAR-5 ovarian,> 100 µM
C[Si](C)(C)c1ccc(-c2c3ccc(-c4cc(Br)cc(Br)c4)nc3nc3nc(-c4cc(Br)cc(Br)c4)ccc23)cc1,TGI,BT-549 breast,> 100 µM
same,TGI,M14 melanoma,> 100 µM
same,TGI,A549 NSCLC,> 100 µM
same,TGI,EKVX NSCLC,> 100 µM
same,TGI,NCI-H522 lung,> 100 µM
same,TGI,TK-10 renal,> 100 µM
same,TGI,HOP-92 NSCLC,> 100 µM
same,TGI,OVCAR-5 ovarian,> 100 µM
